The nature of data set [1]: Cellular toxicity assay in Huh7 cells. The following applies: human, read-out: Cytotoxicity, CC50 (μM) Huh7. It counts as cell-based. The procedure:
[The procedure below names another cell line; the source lists this cell line under the same test.] (§1) The toxicity of the compounds was assessed in Vero, human PBM, CEM (human lymphoblastoid), MT-2, and HepG2 cells, as described previously (see Schinazi R. F., Sommadossi J.-P., Saalmann V., Cannon D. L., Xie M.-Y., Hart G. C., Smith G. A. & Hahn E. F. Antimicrob. Agents Chemother. 1990, 34, 1061-67). Cycloheximide was included as positive cytotoxic control, and untreated cells exposed to solvent were included as negative controls. The cytotoxicity CC50 was obtained from the concentration-response curve using the median effective method described previously (see Chou T.-C. & Talalay P. Adv. Enzyme Regul. 1984, 22, 27-55; Belen'kii M. S. & Schinazi R. F. Antiviral Res. 1994, 25, 1-11).

The nature of data set [2]: Cellular toxicity assay in CEM cells. It counts as cell-based. The settings on record: human, read-out: Cytotoxicity, CC50 (μM) CEM. The procedure:
as §1

The nature of data set [3]: Cellular toxicity assay in PBM cells. It counts as cell-based. The settings on record: human, read-out: Cytotoxicity, CC50 (μM) PBM. The procedure:
as §1

A further data set concerns the target Minerva virus protease (Norovirus GII.4 (Minerva virus), UniProt P54634). Nature of the data set: FRET enzyme kinetic assay, NoV GII.4 Minerva virus protease. It counts as biochemical. The following applies: Minerva virus (GII.4) protease; inhibitor incubated with enzyme 90 minutes at 37° C. before FRET substrate. Here is the method: The ability of these compounds to inhibit the NoV, specifically Minerva virus protease catalytic Cys139 covalently (IC50 and Ki) was determined with an enzyme kinetic assay. NoV strains, specifically GII.4 such as the Minerva virus are responsible for causing the majority (˜80%) of infections in humans. The activity of the inhibitors was evaluated by monitoring the cleavage of a FRET substrate every one minute for 20 minutes (excitation/emission: 488/520 nm) using a SpectraMax M5 microplate reader (Molecular Devices, Sunnyvale CA). Serial dilutions of each inhibitor were incubated with enzyme for 90 minutes at 37° C. before addition of the FRET substrate to ensure complete inactivation. Commercially available protease inhibitors chymostatin and rupintrivir were used as controls.

Data set [4] addresses Norovirus GI.1 (Norwalk virus) protease (Norovirus (strain Human/NoV/United States/Norwalk/1968/GI) (Hu/NV/NV/1968/US), UniProt Q83883). The data set is described as follows: FRET based enzyme assay, Norovirus GI.1 protease. It counts as biochemical. The settings on record: 37° C. Here is the method: Norovirus GI.1 (Norwalk virus) protease were tested for enzymatic activity using a fluorescence resonance energy transfer (FRET) based enzyme assay. Norovirus GI.1 represents 5 to 10% of the clinical isolates. The FRET kinetic enzyme assays were performed as follows. The purified viral protease was diluted in reaction buffer (50 mM HEPES, pH 8.0, 120 mM NaCl, 0.4 mM EDTA, 20% glycerol, and 4 mM DTT) to a final concentration of 128 nM. Each reaction was initiated by addition of FRET substrate [(HiLyte Fluor 488) -[…]-(QXL520)]. To determine kinetic parameters, the FRET substrate was serially diluted to final concentrations of 100 μM to 49 nM and added to the reaction. The final reaction volume was 100 μL. The fluorescence emitted by substrate cleavage was monitored by a microplate reader (SpectraMax M5, Molecular Devices, Sunnyvale, CA, USA) at a 488 nm excitation wavelength with an emission wavelength of 520 nm. Readings were taken every minute for 20 minutes, and the reactions were performed at 37° C. In order to convert RFU into μM, a standard curve was created by measuring fluorescence of free HiLyte Fluor 488, which was serially diluted from 250 nM to 3.9 nM. All data were plotted and analyzed with GraphPad Prism v. 6.07.

The nature of data set [5]: Cellular toxicity assay in Vero cells. It counts as cell-based. The settings on record: African green monkey, read-out: Cytotoxicity, CC50 (μM) VERO. Here is the method:
as §1

Some results are limits rather than exact numbers.

Sequence of Norovirus GI.1 (Norwalk virus) protease (Q83883 1101-1281): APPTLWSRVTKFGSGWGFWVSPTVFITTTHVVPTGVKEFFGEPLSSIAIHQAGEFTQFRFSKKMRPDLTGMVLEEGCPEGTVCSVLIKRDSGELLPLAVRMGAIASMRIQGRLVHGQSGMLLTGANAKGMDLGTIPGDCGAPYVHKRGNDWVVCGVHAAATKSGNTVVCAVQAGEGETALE
Sequence of Minerva virus protease (P54634 whole entry, looked up): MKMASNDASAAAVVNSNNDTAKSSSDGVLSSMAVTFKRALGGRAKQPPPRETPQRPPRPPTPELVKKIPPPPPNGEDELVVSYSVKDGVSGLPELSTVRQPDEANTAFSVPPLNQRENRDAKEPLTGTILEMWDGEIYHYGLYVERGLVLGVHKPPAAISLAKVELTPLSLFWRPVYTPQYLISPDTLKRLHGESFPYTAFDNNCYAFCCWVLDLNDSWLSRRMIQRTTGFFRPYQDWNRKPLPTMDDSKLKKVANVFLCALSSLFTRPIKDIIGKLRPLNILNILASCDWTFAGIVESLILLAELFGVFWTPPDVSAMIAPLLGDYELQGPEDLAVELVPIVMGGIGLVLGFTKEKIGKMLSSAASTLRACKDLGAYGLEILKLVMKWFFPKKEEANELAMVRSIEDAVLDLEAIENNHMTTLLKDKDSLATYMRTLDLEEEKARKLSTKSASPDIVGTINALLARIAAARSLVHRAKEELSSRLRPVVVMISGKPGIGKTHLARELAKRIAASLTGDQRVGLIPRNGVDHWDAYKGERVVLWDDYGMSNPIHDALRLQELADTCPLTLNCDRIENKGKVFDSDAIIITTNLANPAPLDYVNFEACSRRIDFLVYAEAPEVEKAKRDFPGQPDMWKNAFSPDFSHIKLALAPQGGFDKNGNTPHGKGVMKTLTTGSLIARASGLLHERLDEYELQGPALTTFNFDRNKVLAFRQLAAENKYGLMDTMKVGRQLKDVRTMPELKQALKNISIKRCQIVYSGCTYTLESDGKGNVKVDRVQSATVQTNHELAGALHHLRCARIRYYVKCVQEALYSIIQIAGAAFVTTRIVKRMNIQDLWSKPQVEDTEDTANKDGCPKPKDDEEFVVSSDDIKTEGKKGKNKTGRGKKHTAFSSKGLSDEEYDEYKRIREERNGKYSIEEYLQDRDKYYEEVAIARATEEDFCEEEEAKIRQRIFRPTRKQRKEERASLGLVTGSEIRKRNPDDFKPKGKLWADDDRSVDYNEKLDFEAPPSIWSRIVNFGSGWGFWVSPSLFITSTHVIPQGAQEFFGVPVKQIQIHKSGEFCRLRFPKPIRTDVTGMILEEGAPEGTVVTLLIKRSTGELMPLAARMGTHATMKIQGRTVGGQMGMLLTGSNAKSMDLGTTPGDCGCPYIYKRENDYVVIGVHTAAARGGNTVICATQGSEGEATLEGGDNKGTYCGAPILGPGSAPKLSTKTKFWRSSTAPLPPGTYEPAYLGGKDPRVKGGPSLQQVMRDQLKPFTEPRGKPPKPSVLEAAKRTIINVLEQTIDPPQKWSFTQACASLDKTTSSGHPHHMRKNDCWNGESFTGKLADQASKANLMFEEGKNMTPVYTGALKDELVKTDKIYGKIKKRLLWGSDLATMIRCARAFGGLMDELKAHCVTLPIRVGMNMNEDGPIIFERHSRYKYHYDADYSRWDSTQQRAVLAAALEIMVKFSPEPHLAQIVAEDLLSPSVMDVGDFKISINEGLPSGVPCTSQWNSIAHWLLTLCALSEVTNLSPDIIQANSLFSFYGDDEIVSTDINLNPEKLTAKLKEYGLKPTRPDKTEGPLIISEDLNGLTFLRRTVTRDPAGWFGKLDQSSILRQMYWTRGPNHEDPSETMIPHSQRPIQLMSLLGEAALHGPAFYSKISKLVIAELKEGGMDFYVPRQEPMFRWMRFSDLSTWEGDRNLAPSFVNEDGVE

For the compound `CC(C)C[C@H](NC(=O)[C@H](Cc1cccc2ccccc12)NC(=O)OCc1ccccc1)C(=O)N[C@@H](C[C@@H]1CCCNC1=O)C(O)S(=O)(=O)O` (stereo partly drawn) [Compound 37, Sodium (5S,8S,11S)-12-hydroxy-8-isobutyl-5-(naphthalen-1-ylmethyl)-3,6,9-trioxo-11-(((S)-2-oxopiperidin-3-yl)methyl)-1-phenyl-2-oxa-4,7,10-triazadodecane-12-sulfonate], the CC50 (as a rule, the concentration that lowers cell viability or growth by half) in data set [1] is 11 µM; in data set [2] it was 18 µM; in data set [3], 44 µM; in data set [5], > 100 µM. The IC50 (in general, the concentration needed to halve the response being measured) was determined as 2.63 ± 1.04 µM against Minerva virus protease and 0.654 ± 0.285 µM in data set [4]. Besides, in data set [4], affinity was put at a Ki of 2.24 ± 0.438 µM.

The values above are taken from patent publication US11859014B2, “Peptidomimetics for the treatment of Norovirus infection” (EMORY UNIVERSITY, priority 2016, dated 2024).
